Assay results reported in the NIST ThermoML archive (doi:10.1016/j.jct.2018.02.022).
Numbers after ± are expanded uncertainties.

Test: xn = mol fraction of the nth substance listed
Settings: 92.3 kPa, Liquid; for viscosity: Concentric cylinders viscometry; for speed of sound: Frequency=3 MHz, Single path-length method; for mass density: Vibrating tube method

OCCO [1,2-ethanediol] + O
Settings	mass density, 303.15 K [kg/m3]	mass density, 308.15 K [kg/m3]	speed of sound, 303.15 K [m/s]	speed of sound, 308.15 K [m/s]	viscosity, 303.15 K [mPa·s]	viscosity, 308.15 K [mPa·s]
x1 = 0.0101	1000.04 ± 3.2	998.43 ± 3.2	1523.1 ± 1.8	1532.7 ± 1.8	–	–
x1 = 0.0201	1004 ± 3.2	1002.32 ± 3.2	1536.3 ± 1.8	1544.8 ± 1.8	–	–
x1 = 0.0302	1007.88 ± 3.2	1006.13 ± 3.2	1549.1 ± 1.8	1556.6 ± 1.8	–	–
x1 = 0.0407	1011.76 ± 3.2	1009.9 ± 3.2	1561.7 ± 1.8	1568.1 ± 1.8	–	–
x1 = 0.0494	1014.98 ± 3.2	1013.02 ± 3.2	–	–	1.164 ± 0.16	1.059 ± 0.15
x1 = 0.0506	1015.24 ± 3.2	1013.36 ± 3.2	1573 ± 1.8	1578.4 ± 1.8	–	–
x1 = 0.0605	1018.73 ± 3.2	1016.68 ± 3.2	1583.6 ± 1.8	1588 ± 1.8	–	–
x1 = 0.0704	1022.12 ± 3.2	1019.92 ± 3.2	1594 ± 1.8	1597.4 ± 1.8	–	–
x1 = 0.0801	1025.1 ± 3.2	1022.9 ± 3.2	1602.9 ± 1.8	1605.7 ± 1.8	–	–
x1 = 0.0905	1028.31 ± 3.2	1026.05 ± 3.2	1612.5 ± 1.8	1614.3 ± 1.8	–	–
x1 = 0.0986	1030.68 ± 3.2	1028.37 ± 3.2	–	–	1.555 ± 0.22	1.38 ± 0.19
x1 = 0.0997	1031.05 ± 3.2	1028.71 ± 3.2	1620.2 ± 1.8	1621.3 ± 1.8	–	–
x1 = 0.1483	1043.73 ± 3.3	1041.14 ± 3.3	–	–	1.99 ± 0.28	1.741 ± 0.24
x1 = 0.1493	1044.06 ± 3.3	1041.45 ± 3.3	1654.1 ± 1.8	1652 ± 1.8	–	–
x1 = 0.1985	1054.47 ± 3.3	1051.74 ± 3.3	1676.9 ± 1.8	1672.2 ± 1.8	–	–
x1 = 0.2072	1056.16 ± 3.3	1053.32 ± 3.3	–	–	2.564 ± 0.36	2.226 ± 0.31
x1 = 0.2466	1063 ± 3.3	1060.02 ± 3.3	–	–	2.965 ± 0.42	2.572 ± 0.36
x1 = 0.2487	1063.38 ± 3.3	1060.37 ± 3.3	1690.5 ± 1.8	1684.2 ± 1.8	–	–
x1 = 0.298	1070.45 ± 3.3	1067.33 ± 3.3	–	–	3.541 ± 0.5	3.066 ± 0.43
x1 = 0.2998	1070.7 ± 3.3	1067.57 ± 3.3	1698.3 ± 1.8	1690.6 ± 1.8	–	–
x1 = 0.3318	1074.59 ± 3.3	1071.38 ± 3.3	1700.5 ± 1.8	1692.2 ± 1.8	–	–
x1 = 0.3399	1075.52 ± 3.3	1072.31 ± 3.3	–	–	4.029 ± 0.56	3.48 ± 0.49
x1 = 0.3921	1080.8 ± 3.3	1077.51 ± 3.3	–	–	4.67 ± 0.65	4.026 ± 0.56
x1 = 0.3981	1081.34 ± 3.3	1077.99 ± 3.3	1701.1 ± 1.8	1691.7 ± 1.8	–	–
x1 = 0.4446	1085.21 ± 3.3	1081.86 ± 3.3	–	–	5.349 ± 0.75	4.605 ± 0.64
x1 = 0.4521	1085.69 ± 3.3	1082.37 ± 3.3	1698.9 ± 1.8	1688.8 ± 1.8	–	–
x1 = 0.4934	–	1085.26 ± 3.3	1695.7 ± 1.8	1685.2 ± 1.8	–	–
x1 = 0.5007	–	1085.73 ± 3.3	–	–	6.109 ± 0.86	5.245 ± 0.73
x1 = 0.5485	1091.97 ± 3.3	–	–	–	6.771 ± 0.95	5.811 ± 0.81
x1 = 0.552	1092.19 ± 3.3	–	1690.2 ± 1.8	1679.4 ± 1.8	–	–
x1 = 0.5846	1093.94 ± 3.3	1090.48 ± 3.3	1686.7 ± 1.8	1675.8 ± 1.8	–	–
x1 = 0.6004	1094.63 ± 3.3	1091.17 ± 3.3	–	–	7.519 ± 1.1	6.445 ± 0.9
x1 = 0.6451	1096.63 ± 3.3	1093.16 ± 3.3	–	–	8.173 ± 1.1	7.002 ± 0.98
x1 = 0.6481	1096.77 ± 3.3	1093.29 ± 3.3	1679.9 ± 1.8	1668.8 ± 1.8	–	–
x1 = 0.6773	1097.96 ± 3.3	1094.48 ± 3.3	1676.6 ± 1.8	1665.3 ± 1.8	–	–
x1 = 0.7012	1098.83 ± 3.3	1095.34 ± 3.3	–	–	9.085 ± 1.3	7.725 ± 1.1
x1 = 0.7421	1100.21 ± 3.3	1096.71 ± 3.3	1669.4 ± 1.8	1658 ± 1.8	–	–
x1 = 0.7435	1100.29 ± 3.3	1096.79 ± 3.3	–	–	9.808 ± 1.4	8.27 ± 1.2
x1 = 0.7811	1101.44 ± 3.3	1097.94 ± 3.3	1665 ± 1.8	1653.6 ± 1.8	–	–
x1 = 0.7907	1101.74 ± 3.3	1098.23 ± 3.3	–	–	10.55 ± 1.5	8.857 ± 1.2
x1 = 0.8497	–	1099.81 ± 3.3	1657.7 ± 1.8	1646.1 ± 1.8	–	–
x1 = 0.8505	–	1099.84 ± 3.3	–	–	11.54 ± 1.6	9.617 ± 1.3
x1 = 0.89	1104.3 ± 3.3	1100.78 ± 3.3	–	–	12.15 ± 1.7	10.11 ± 1.4
x1 = 0.9002	1104.55 ± 3.3	1101.03 ± 3.3	1652.6 ± 1.8	1640.9 ± 1.8	–	–
x1 = 0.9059	1104.67 ± 3.3	1101.15 ± 3.3	1652.1 ± 1.8	1640.4 ± 1.8	–	–
x1 = 0.912	1104.78 ± 3.3	1101.26 ± 3.3	1651.6 ± 1.8	1639.9 ± 1.8	–	–
x1 = 0.9299	1105.19 ± 3.3	1101.66 ± 3.3	1649.8 ± 1.8	1638.1 ± 1.8	–	–
x1 = 0.9413	1105.43 ± 3.3	1101.91 ± 3.3	1648.7 ± 1.8	1637 ± 1.8	–	–
x1 = 0.9495	1105.62 ± 3.3	1102.1 ± 3.3	1647.8 ± 1.8	1636.1 ± 1.8	–	–
x1 = 0.9532	1105.68 ± 3.3	1102.16 ± 3.3	–	–	13.12 ± 1.8	10.89 ± 1.5
x1 = 0.9546	1105.72 ± 3.3	1102.2 ± 3.3	1647.5 ± 1.8	1635.8 ± 1.8	–	–
x1 = 0.9681	1105.98 ± 3.3	1102.46 ± 3.3	1646.3 ± 1.8	1634.6 ± 1.8	–	–
x1 = 0.9789	1106.18 ± 3.3	–	1645.4 ± 1.8	1633.6 ± 1.8	–	–
x1 = 0.9893	1106.39 ± 3.2	–	1644.3 ± 1.8	1632.5 ± 1.8	–	–
x1 = 1	1106.71 ± 3	–	1642.9 ± 1.8	1631.2 ± 1.8	13.87 ± 1.9	11.48 ± 1.6
